Publication PMC2442655, “Structure-Activity Relationship and Substrate-Dependent Phenomena in Effects of Ginsenosides on Activities of Drug-Metabolizing P450 Enzymes” (PLoS ONE, 2008)
Read-outs that look alike come from different tables or passages of the source.

Assays:
CYP3A4 [1] = biological target: T1, CYP3A4 (Homo sapiens, UniProt P08684); experiment: Vivid CYP3A4 red fluorescent assay; conditions: for Effect on CYP3A4 catalytic activity, Vivid red assay: red substrate
Procedure: (§1) The inhibition of the catalytic activities of cDNA-expressed human P450 enzymes by ginsenosides was determined using Vivid® P450 screening kits (CYP1A2 blue, CYP2C9 red, CYP2C19 blue, CYP2D6 blue, CYP3A4 green and red) according to the manufacturer's instructions (Invitrogen Corporation; Carlsbad, CA, USA).
(§2) In brief, the assays were carried out in Costar® black-wall 96-well plates with ultra thin clear bottoms (Corning Inc, Corning, NY, USA) in a kinetic assay mode. Stock solutions (10 mM) of ginsenosides in methanol were prepared and diluted to various concentrations (2.5× 100, 50, 10, 5, 1 µM). For each well, 40 µL of solution of test compounds or vehicle was incubated with 50 µL pre-mixture (mixture of BACULOSOMES® reagent, regeneration system and reaction buffer) at 37°C for 20 min. The reaction was initiated by adding 10 µL of a mixture of substrate and NADP^+ per well with a respective concentration of Vivid® substrate (Table 1). The plate was read immediately for fluorescence changes every 0.5 min at 37°C for 30 min using a FlexStation II384 fluorometric plate reader (Molecular Devices, Sunnyvale, CA, USA) with respective excitation and emission wavelengths for each P450 enzyme (Table 1). The final methanol volume in the reaction was less than or equal to 1%.

CYP2C9 = biological target: T2, CYP2C9 (Homo sapiens, UniProt P11712); experiment: Vivid CYP2C9 red fluorescent assay; type: in vitro ADME
T2 construct: purchased Invitrogen Corporation
T2 sequence (P11712 whole entry): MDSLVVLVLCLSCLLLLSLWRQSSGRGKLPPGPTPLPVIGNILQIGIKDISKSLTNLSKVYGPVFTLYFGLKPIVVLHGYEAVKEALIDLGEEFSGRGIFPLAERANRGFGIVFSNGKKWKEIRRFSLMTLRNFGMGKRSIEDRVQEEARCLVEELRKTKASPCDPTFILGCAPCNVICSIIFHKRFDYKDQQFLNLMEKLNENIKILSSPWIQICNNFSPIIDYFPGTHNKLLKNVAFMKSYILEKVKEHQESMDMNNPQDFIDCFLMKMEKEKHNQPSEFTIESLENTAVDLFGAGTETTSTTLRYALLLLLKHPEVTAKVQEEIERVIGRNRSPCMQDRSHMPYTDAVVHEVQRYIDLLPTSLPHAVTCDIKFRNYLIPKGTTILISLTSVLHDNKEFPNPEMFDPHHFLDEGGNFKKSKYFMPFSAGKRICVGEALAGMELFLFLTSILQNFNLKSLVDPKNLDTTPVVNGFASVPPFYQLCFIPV
Procedure: In brief, the assays were carried out in Costar® black-wall 96-well plates with ultra thin clear bottoms (Corning Inc, Corning, NY, USA) in a kinetic assay mode. […] For each well, 40 µL of solution of test compounds or vehicle was incubated with 50 µL pre-mixture (mixture of BACULOSOMES® reagent, regeneration system and reaction buffer) at 37°C for 20 min. […] The final methanol volume in the reaction was less than or equal to 1%.

CYP3A4 [2] = biological target: T1, CYP3A4; experiment: Carbamazepine 10,11-epoxidation in human liver microsomes; conditions: for Effect on in vitro CBZ metabolism: 1-50 µM
Procedure: (§3) The effects of the ginsenosides and sapogenins on the in vitro metabolism of CBZ were evaluated using HLM. […] Vehicle control samples were treated with methanol at a final concentration of 0.5% instead of test compounds. The reaction was initiated by adding 60 µL pre-warmed NADPH-regenerating system (50 µL BD solution A and 10 µL BD solution B). After incubation at 37°C for 30 min, the reaction system was quenched by adding 0.4 ml ice-cold acetonitrile, which was mixed well and centrifuged at 4°C (10,000 g, 10 min). The supernatant (0.4 ml) was collected, mixed with 0.8 ml acetonitrile and then centrifuged at 4°C (10,000 g, 10 min). The supernatant (30 µL) was diluted with 970 µL ddH2O and 50 µL of the mixture was injected onto the high performance liquid chromatography/tandem mass spectrometry (HPLC-MS-MS) system for analysis. […] Microsomal studies using NF as the substrate were conducted as described above for CBZ with several modifications. The NF concentration was 1 µM. The supernatant (0.4 ml) of the reaction system after quenching and centrifugation was also combined with 0.8 ml acetonitrile and centrifuged, and 10 µL of the resultant supernatant was directly injected onto the HPLC-MS-MS system for analysis.
(§4) The HPLC was performed using an Agilent 1200 system (Palo Alto, CA, USA) equipped with a binary pump and an auto-sampler. […] The elution lasted for 8 min.
(§5) The MS analysis was performed on a 4000Q Trap™ triple quadrupole mass spectrometer (Applied Biosystems/MDS Sciex Instruments, Concord, Ontario, Canada) equipped with a Turbo V ion source (TurboIonSpray™ probe was used), a Dell™ computer, and Analyst™ software. Electrospray ionization in the positive mode was employed to analyze CBZ-E and ONF, respectively. The compound parameters for CBZ-E and ONF were: declustering potential, 65 and 95 units, and collision energy, 39 and 40 units, respectively. The ion source parameters were as follows: curtain gas, 15 units; collision gas, medium; ion spray voltage, 4000 and 5000 V, respectively; temperature, 650 and 350°C, respectively; ion source gas 1, 60.0 and 65.0 units, respectively; ion source gas 2, 45.0 units.

CYP3A4 [3] = biological target: T1, CYP3A4; experiment: Vivid CYP3A4 green fluorescent assay
Procedure: as §1, §2

CYP2D6 = CYP2D6 (Homo sapiens, UniProt P10635); experiment: Vivid CYP2D6 blue fluorescent assay; conditions: for inhibition at 30 min, 50 µM: human
Sequence of CYP2D6 (P10635 whole entry): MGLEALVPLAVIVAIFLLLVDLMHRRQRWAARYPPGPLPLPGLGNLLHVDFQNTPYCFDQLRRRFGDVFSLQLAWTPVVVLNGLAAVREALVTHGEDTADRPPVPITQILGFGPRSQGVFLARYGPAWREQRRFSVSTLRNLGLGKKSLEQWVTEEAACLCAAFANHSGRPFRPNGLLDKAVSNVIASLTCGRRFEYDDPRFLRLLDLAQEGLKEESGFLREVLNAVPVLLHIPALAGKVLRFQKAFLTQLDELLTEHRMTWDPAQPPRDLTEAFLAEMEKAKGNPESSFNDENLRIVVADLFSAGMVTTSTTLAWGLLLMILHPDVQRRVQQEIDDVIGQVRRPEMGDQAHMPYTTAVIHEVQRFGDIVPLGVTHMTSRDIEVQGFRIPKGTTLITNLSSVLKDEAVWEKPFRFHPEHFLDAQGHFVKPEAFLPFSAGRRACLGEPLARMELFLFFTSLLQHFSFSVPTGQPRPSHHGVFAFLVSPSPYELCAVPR
Procedure: as §1, §2

CYP3A4 [4] = biological target: T1, CYP3A4; experiment: Nifedipine oxidation in human liver microsomes; conditions: for Effect on NF metabolism: 1-50 µM; for Effect on NF in vitro metabolism: low concentrations (1∼10 µM)
Procedure: as §3, §4, §5

CYP1A2 = biological target: T3, CYP1A2 (Homo sapiens, UniProt P05177); experiment: Vivid CYP1A2 blue fluorescent assay; conditions: for IC50: IC50 CYP1A2 blue, cDNA-expressed enzyme, Vivid blue substrate 3 µM; for inhibition at 30 min, 50 µM: human
T3 sequence (P05177 1-516): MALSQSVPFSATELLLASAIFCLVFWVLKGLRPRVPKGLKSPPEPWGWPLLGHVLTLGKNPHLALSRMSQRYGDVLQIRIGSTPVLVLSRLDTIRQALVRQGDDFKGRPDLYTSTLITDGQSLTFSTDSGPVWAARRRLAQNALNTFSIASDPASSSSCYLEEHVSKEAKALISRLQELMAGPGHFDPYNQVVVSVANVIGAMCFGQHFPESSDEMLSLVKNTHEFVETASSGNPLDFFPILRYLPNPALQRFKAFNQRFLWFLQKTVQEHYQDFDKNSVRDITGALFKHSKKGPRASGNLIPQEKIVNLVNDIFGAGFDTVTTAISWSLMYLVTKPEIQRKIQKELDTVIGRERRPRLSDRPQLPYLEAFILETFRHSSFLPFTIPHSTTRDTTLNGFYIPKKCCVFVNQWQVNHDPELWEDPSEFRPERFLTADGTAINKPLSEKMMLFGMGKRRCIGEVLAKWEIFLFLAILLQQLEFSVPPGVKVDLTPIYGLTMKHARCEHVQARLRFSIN
Procedure: as §1, §2

CYP2C19 = CYP2C19 (Homo sapiens, UniProt P33261); experiment: Vivid CYP2C19 blue fluorescent assay
Sequence of CYP2C19 (P33261 whole entry): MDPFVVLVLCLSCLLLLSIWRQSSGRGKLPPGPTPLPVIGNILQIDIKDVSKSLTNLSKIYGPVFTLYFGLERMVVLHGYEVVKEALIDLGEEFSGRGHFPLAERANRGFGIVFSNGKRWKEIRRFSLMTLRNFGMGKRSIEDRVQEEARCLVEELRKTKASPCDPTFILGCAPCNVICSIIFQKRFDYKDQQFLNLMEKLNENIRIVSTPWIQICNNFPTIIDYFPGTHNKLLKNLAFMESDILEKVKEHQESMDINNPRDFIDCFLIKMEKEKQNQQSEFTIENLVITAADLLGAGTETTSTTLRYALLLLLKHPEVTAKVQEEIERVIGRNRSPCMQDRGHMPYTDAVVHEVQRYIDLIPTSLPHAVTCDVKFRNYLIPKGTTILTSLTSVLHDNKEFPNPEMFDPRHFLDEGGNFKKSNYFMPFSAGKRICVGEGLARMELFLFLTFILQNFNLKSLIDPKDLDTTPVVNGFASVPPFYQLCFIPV
Procedure: as §1, §2

CYP3A4 [5] = test system: CYP3A4; parameters: method as in PMID 15133536; conditions: read-out: IC50 CYP3A4-mediated testosterone 6β-hydroxylation; cited from earlier work
[6] = cDNA-expressed enzyme, Vivid red substrate 2 µM, maximum concentration 50 µM, read-out: IC50 CYP2C9 red
[7] = recombinant (cDNA-expressed) CYP2D6 BACULOSOMES, probe Vivid blue substrate 10 µM
[8] = recombinant (cDNA-expressed) CYP1A2 BACULOSOMES, probe Vivid blue substrate 3 µM

T1 sequence (P08684 whole entry): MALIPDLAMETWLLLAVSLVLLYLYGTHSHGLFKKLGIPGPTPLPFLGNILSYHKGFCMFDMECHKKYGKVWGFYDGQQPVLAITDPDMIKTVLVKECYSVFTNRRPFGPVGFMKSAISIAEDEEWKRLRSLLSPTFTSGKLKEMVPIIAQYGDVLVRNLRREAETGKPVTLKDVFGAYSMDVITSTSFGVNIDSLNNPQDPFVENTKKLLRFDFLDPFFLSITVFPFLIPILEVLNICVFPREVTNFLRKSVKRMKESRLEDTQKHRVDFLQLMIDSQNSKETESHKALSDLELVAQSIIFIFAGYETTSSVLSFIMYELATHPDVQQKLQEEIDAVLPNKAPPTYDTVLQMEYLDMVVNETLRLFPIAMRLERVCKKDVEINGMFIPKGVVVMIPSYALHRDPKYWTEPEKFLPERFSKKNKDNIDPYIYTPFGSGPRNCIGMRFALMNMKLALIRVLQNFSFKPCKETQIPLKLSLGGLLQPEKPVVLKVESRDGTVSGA

SMILES	IC50 (CYP3A4 [1]) [µM]	IC50 (CYP2C9; [6]) [µM]	Effect on in vitro CBZ metabolism (CYP3A4 [2])	IC50 (CYP3A4 [3]) [µM]	IC50 (CYP2D6) [µM]	inhibition at 30 min, 50 µM (CYP2D6; [7]) [%]	Effect on NF metabolism (CYP3A4 [4])	IC50 (CYP1A2) [µM]	inhibition at 30 min, 50 µM (CYP1A2; [8]) [%]	IC50 (CYP2C19) [µM]	Effect on CYP3A4 catalytic activity, Vivid red assay (CYP3A4 [1])	Effect on NF in vitro metabolism (CYP3A4 [4])	also measured
COC(C)(C)CCC[C@](C)(O)[C@H]1CC[C@]2(C)[C@@H]1[C@H](O)C[C@@H]1[C@@]3(C)CC[C@H](O)C(C)(C)[C@@H]3CC[C@]12C [25-OCH3-PPD, 20(S)-25-methoxyl-dammarane-3β, 12β, 20-triol]	> 100	7.5	substantially activated	17.7	> 50	12.6	negligible	> 100	4.8	26.5			Activation of CYP3A4, Vivid red assay (CYP3A4 [1]; 10 µM): about 20%; Effect on CYP3A4, Vivid red assay (CYP3A4 [1]; high concentrations): weakly inhibited; inhibition at 30 min, 50 µM (CYP3A4 [1]; human, recombinant (cDNA-expressed) CYP3A4 BACULOSOMES, probe Vivid red substrate 3 µM): 25.4%
CC(C)=CCC[C@](C)(O)[C@H]1CC[C@]2(C)[C@@H]1[C@H](O)C[C@@H]1[C@@]3(C)CC[C@H](O[C@@H]4O[C@H](CO)[C@@H](O)[C@H](O)[C@H]4O)C(C)(C)[C@@H]3CC[C@]12C [Rh2]	9.8		did not significantly alter	47	> 50			> 100		49.9	inhibited CYP3A4 in a dose-dependent manner	weak activation effect	IC50 (CYP2C9): 30.9 µM; inhibition at 30 min, 50 µM (CYP2D6): 20.3%; Effect on CYP3A4-catalyzed NF oxidation (CYP3A4 [4]; high concentration (50 µM)): weakly inhibited; inhibition at 30 min, 50 µM (CYP1A2): 39.4%
CC(C)=CCC[C@](C)(O[C@@H]1O[C@H](CO)[C@@H](O)[C@H](O)[C@H]1O)[C@H]1CC[C@]2(C)[C@@H]1[C@H](O)C[C@@H]1[C@@]3(C)CC[C@H](O[C@@H]4O[C@H](CO)[C@@H](O)[C@H](O)[C@H]4O[C@@H]4O[C@H](CO)[C@@H](O)[C@H](O)[C@H]4O)C(C)(C)[C@@H]3CC[C@]12C [Rd]	72.7	> 50		> 100	> 50	18.1		> 100	38.3	> 100			IC50 (CYP3A4 [5]): 62 µM; inhibition at 30 min, 50 µM (CYP2C9; human, recombinant (cDNA-expressed) CYP2C9 BACULOSOMES, probe Vivid red substrate 2 µM): 34.8%; inhibition at 30 min, 50 µM (CYP3A4 [3]; human, recombinant (cDNA-expressed) CYP3A4 BACULOSOMES, probe Vivid green substrate 2 µM): 12.6%; inhibition at 30 min, 50 µM (CYP2C19; human, recombinant (cDNA-expressed) CYP2C19 BACULOSOMES, probe Vivid blue substrate 10 µM): 27.7%
CC(C)(O)CCC[C@@](C)(O)[C@H]1CC[C@]2(C)[C@@H]1[C@H](O)C[C@@H]1[C@@]3(C)CC[C@H](O)C(C)(C)[C@@H]3CC[C@]12C [20(R)-25-OH-PPD, 20(R)-dammarane-3β, 12β, 20, 25-tetrol]		7.6	substantially activated	25.6	> 50	31.8	negligible	> 100	22.8	69.1	activated the catalytic activity of CYP3A4		Activation of CYP3A4, Vivid red assay (fold) (CYP3A4 [1]; 10 µM): about two-fold
O=c1cc(-c2ccccc2)oc2c1ccc1ccccc12 [α-naphthoflavone, reference compound]													Increase of CBZ metabolism vs vehicle control (CYP3A4 [2]; 10 µM): 772%; Effect on in vitro NF metabolism (CYP3A4 [4]; 10 µM): did not significantly alter
CC(C)=CCC[C@](C)(O)[C@H]1CC[C@]2(C)[C@@H]1[C@H](O)C[C@@H]1[C@@]3(C)CC[C@H](O)C(C)(C)[C@@H]3CC[C@]12C [PPD, protopanaxadiol]	43.1	8	substantially activated	9.3	> 50	25.9		86.6		52.6	inhibited CYP3A4 in a dose-dependent manner	weak activation effect	Activation of CBZ metabolism (fold) (CYP3A4 [2]; 10 µM): about five-fold
